Data on one compound can be found in ChEMBL document CHEMBL2062415, “Steroids from Commiphora mukul display antiproliferative effect against human prostate cancer PC3 cells via induction of apoptosis” (Bioorg Med Chem Lett, 2012).

The structures appear in SMILES notation. Calls of active or inactive are those of the source. The rule behind the calls is not given here.

The test system of assay [1] is MCF7. The assay can be described thus: Induction of apoptosis in human MCF7 cells assessed as late apoptotic cells at 10 uM after 48 hrs by annexinV/propidium iodide staining-based FITC analysis (reference value: 3.57%). The assay is classed as functional.
Assay [2] relates to MCF7. The assay can be described thus: Induction of apoptosis in human MCF7 cells assessed as accumulation at G0/G1 phase at 20 uM after 48 hrs by propidium iodide staining-based flow cytometric analysis (reference value: 67.46%). It is filed as functional. On the technique in general: Flow cytometry measures light scatter and fluorescence of single cells or particles in a stream.

In assay [3] the test system is K562. The assay can be described thus: Induction of apoptosis in human K562 cells assessed as necrotic cells at 10 uM after 48 hrs by annexinV/propidium iodide staining-based FITC analysis (reference value: 1.19%). It is filed as functional.
The subject of assay [4] is K562. Nature of the assay: Induction of apoptosis in human K562 cells assessed as late apoptotic cells at 10 uM after 48 hrs by annexinV/propidium iodide staining-based FITC analysis (reference value: 2.55%). It is filed as functional.
Assay [5] relates to PC-3. The assay can be described thus: Induction of apoptosis in human PC3 cells assessed as necrotic cells at 20 uM after 48 hrs by annexinV/propidium iodide staining-based FITC analysis relative to control. It is filed as functional.
The subject of another assay is DU-145. The assay can be described thus: Induction of apoptosis in human DU145 cells assessed as late apoptotic cells at 40 uM after 48 hrs by annexinV/propidium iodide staining-based FITC analysis (reference value: 2.78%). The assay is classed as functional.
The subject of assay [6] is PC-3. Nature of the assay: Induction of apoptosis in human PC3 cells assessed as cleavage of caspase 9 at 5 to 20 uM after 48 hrs by Western blot analysis. It is filed as functional, cell-based. Background: A western blot detects proteins with antibodies after separation by electrophoresis.
The test system of assay [7] is PC-3. The assay can be described thus: Inhibition of cyclin B1 protein expression in human PC3 cells at 20 uM after 48 hrs by Western blot analysis. It is filed as functional, cell-based.
The test system of assay [8] is MCF7. Nature of the assay: Induction of apoptosis in human MCF7 cells assessed as accumulation at G2/M phase at 20 uM after 48 hrs by propidium iodide staining-based flow cytometric analysis (reference value: 9.55%). It is filed as functional.
For assay [9], the system named is PC-3. The assay can be described thus: Induction of apoptosis in human PC3 cells assessed as early apoptotic cells at 20 uM after 48 hrs by annexinV/propidium iodide staining-based FITC analysis relative to control. The assay is classed as functional.
Assay [10] has as its system K562. The assay can be described thus: Induction of apoptosis in human K562 cells assessed as accumulation at G0/G1 phase at 5 uM after 48 hrs by propidium iodide staining-based flow cytometric analysis (reference value: 38.61%). It is filed as functional.
The test system of assay [11] is PC-3. The assay can be described thus: Induction of apoptosis in human PC3 cells assessed as late apoptotic cells at 5 uM after 48 hrs by annexinV/propidium iodide staining-based FITC analysis relative to control. The assay is classed as functional.
For assay [12], the system named is K562. The assay can be described thus: Induction of apoptosis in human K562 cells assessed as accumulation at S phase at 5 uM after 48 hrs by propidium iodide staining-based flow cytometric analysis (reference value: 45.67%). It is filed as functional.
Assay [13] has as its system K562. Nature of the assay: Induction of apoptosis in human K562 cells assessed as accumulation at G2/M phase at 10 uM after 48 hrs by propidium iodide staining-based flow cytometric analysis (reference value: 15.72%). It is filed as functional.

On to `CC[C@H](/C=C/[C@@H](C)[C@H]1CC[C@H]2[C@H]3[C@H]([C@H](O)C[C@]12C)[C@@]1(C)CC[C@H](O)CC1=C[C@H]3O)C(C)C`, for which the Activity in the assay on MCF7 [1] was 4.42%; with MCF7 [2], 55.93%; with K562 [3], 0.78%; in the assay on K562 [4], 2.62%; in the assay on PC-3 [5], 2.79%; in the assay with DU-145 it was 13.63%. The Activity in the assay with MCF7 [8] is given as 24.7%; in the assay on PC-3 [9], 3.27%; with K562 [10] it was 40.79%; in the assay with PC-3 [11], 27.43%; in the assay with K562 [12] it was 45.5%; in the assay with K562 [13], 12.11%. Besides, the result in the assay with PC-3 [6] was Active. In the assay on PC-3 [7], the inhibition entry is “Active”.
